How the values were obtained:
GSPT1 = target: T1, GSPT1 (Homo sapiens, UniProt P15170+Q96SW2); assay: GSPT1 degradation immunofluorescence assay in CAL-51 cells; assay type: cell-based; settings: 6 hours treatment, compounds 201 to 307, read-out: Activity for GSPT1 degradation (DC50 code)
T1 construct: CAL-51 cells were purchased from DSMZ (cat. Number ACC302); host or cells: CAL-51 cells
Experimental: CAL-51 cells were purchased from DSMZ (cat. Number ACC302), sub-cultured in 90% Dulbecco's MEM (4.5 g/L glucose, Gibco 11965)+10% heat inactivated FBS (BioConcept, 2-01F1361) and incubated at 37° C., 5% CO2. For the assay, imaging microtiterplate Cell Carrier 96 Ultra (Perkin Elmer 6055302) were pre-coated with Fibronectin (Sigma F085, 30 μl at 0.2 μg/ml) in PBS (100p, Gibco 14190) for 45 min at room temperature, rinsed with PBS and CAL-51 cells (30K cells/well) were plated and let to adhere overnight. Cells were treated with compounds typically using a serial dilution ranging from 30 μM to 0.1 nM for 6 hours. Compounds were stored at 10 mM DMSO stocks. Vehicle (DMSO), positive (CC-885, 10 μM) and rescue controls (positive control plus 0.2 μM bortezomib) were also included at this stage. Cells were subsequently rinsed with PBS and fixed in 10% Formalin solution (50p, Sigma HT5011)) for 20 mins at room temperature. Following three consecutive PBS washes (100 μl), cells were permeabilized in 0.1% Triton X-100 in PBS (Sigma 93443, 50 μl) for 15 mins at room temperature. Following three further PBS washes, 50 μl blocking buffer (1% BSA, Sigma A4503, in PBS) was added for 45 min for signal-to-noise reduction. Primary antibody (human GSPT1, Sigma HPA052488) was diluted in blocking buffer (dil.1/300, 35 μl/well) and incubated with the cells overnight at 4° C. After three PBS washes, Alexa-fluor 488 coupled secondary antibodies (Invitrogen, A32731, dil. 1/1000), Alexa-fluor 647-Phalloïdin (Invitrogen, A22287, dil. 1/200) and DAPI (Thermo, #62248, dil.1/1000) were diluted in blocking buffer and incubated with the samples for 2 hours at room temperature. After three final PBS washes, samples were conserved in 100 μl PBS in the dark, until measurement. Image acquisition was performed on the Operetta High-Content Imager (Perkin-Elmer). Fluorescence intensity of Alexa-Fluor 488 (GSPT1), Alexa-Fluor 647 (Actin) and DAPI (Nucleus) were measured. For the determination of GSPT1 DC50 values, a custom algorithm implemented in the PerkinElmer image analysis software Harmony-Acapella@ was developed. After user-defined setting of adjustment parameters, the analysis was run identically without human intervention for all image fields. DAPI staining of the nuclei was used to determine the location of cells using standard nuclei detection modules. Segmentation artifacts were removed by threshold-based filters for area, roundness and intensity. The outline of the cells was determined analogously from the sum of the normalized, smoothed DAPI and Actin channel, starting from each nucleus.
The Alexa-Fluor 488 (GSPT1) signal intensity in each cell was finally measured, in order to obtain a Mean intensity per cell. GSPT1 degradation (DC50) was calculated after normalization to controls and data import in CDD vault Database, using non-linear regression.

[1] = target: T2, Full length wild-type cereblon CRBN (Homo sapiens, UniProt Q96SW2); assay: Fluorescence polarization (FP) assay indicating cereblon binding
T2 construct: Full length wild-type cereblon CRBN (80.0 nM, 10 μL) was incubated in assay buffer
Experimental: Compound activity was monitored in a fluorescence polarization (FP) homogeneous assay using 1-[5-({2-[2-(2-{[2-(2,6-dioxopiperidin-3-yl)-1,3-dioxo-2,3-dihydro-1H-isoindol-4-yl]oxy}acetamido)ethoxy]ethyl}carbamoyl)pentyl]-3,3-dimethyl-2-[(1E,3E)-5-[(2E)-1,3,3-trimethyl-5-sulfo-2,3-dihydro-1H-indol-2-ylidene]penta-1,3-dien-1-yl]-3H-indol-1-ium-5-sulfonate as a fluorescent probe. Unless otherwise stated, all reagents were purchased from Sigma Aldrich. Enzymatic reactions were conducted in Perkin-Elmer Black 384 well ProxiPlate Plus (catalogue no. 6008269) in 10 μL total volume. Full length wild-type cereblon CRBN (80.0 nM, 10 μL) was incubated in assay buffer containing 20 mM HEPES (pH 8.0), […], 0.5 mM TCEP and 0.05% Tween 20 in the presence or absence of compound (300 nL). Inhibitors were stored as 10 mM DMSO stocks in an inert environment (low humidity, dark, low oxygen, room temperature) using the Storage Pod System. Compounds and DMSO were dispensed using the Echo E5XX (Labcyte Inc. USA) to give concentrations from 300 to 0.937 or 3000 to 9.3 nM in a 12 data point curve. […] Following incubation at room temperature for 30 min, the assay was initiated by dispensing the probe to a final concentration of 5 nM (2.5 nL of a 20 μM stock) using the Echo E5XX. FP was measured after a period of 12 hours using a Pherastar plate reader (BMG Labtech, Germany) exciting at 590 nm and measuring the amount of parallel and perpendicular light at 675 nm. The FP signal was subsequently normalized to the no-compound control (i.e., DMSO). Analysis and IC50 values were derived using Dotmatics (Dotmatics UK) software.

T2 sequence (Q96SW2 whole entry): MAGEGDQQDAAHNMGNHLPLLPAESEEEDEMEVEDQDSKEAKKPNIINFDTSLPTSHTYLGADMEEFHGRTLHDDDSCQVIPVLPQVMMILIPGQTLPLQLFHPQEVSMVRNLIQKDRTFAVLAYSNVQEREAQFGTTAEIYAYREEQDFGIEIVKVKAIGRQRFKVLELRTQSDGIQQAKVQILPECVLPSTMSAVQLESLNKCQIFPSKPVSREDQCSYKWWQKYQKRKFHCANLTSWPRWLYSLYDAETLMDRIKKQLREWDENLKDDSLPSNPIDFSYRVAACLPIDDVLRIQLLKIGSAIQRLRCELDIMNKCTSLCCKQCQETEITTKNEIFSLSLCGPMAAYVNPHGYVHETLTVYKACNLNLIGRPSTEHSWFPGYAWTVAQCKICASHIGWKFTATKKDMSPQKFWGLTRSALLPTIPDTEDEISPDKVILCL
T1 sequence (P15170 whole entry): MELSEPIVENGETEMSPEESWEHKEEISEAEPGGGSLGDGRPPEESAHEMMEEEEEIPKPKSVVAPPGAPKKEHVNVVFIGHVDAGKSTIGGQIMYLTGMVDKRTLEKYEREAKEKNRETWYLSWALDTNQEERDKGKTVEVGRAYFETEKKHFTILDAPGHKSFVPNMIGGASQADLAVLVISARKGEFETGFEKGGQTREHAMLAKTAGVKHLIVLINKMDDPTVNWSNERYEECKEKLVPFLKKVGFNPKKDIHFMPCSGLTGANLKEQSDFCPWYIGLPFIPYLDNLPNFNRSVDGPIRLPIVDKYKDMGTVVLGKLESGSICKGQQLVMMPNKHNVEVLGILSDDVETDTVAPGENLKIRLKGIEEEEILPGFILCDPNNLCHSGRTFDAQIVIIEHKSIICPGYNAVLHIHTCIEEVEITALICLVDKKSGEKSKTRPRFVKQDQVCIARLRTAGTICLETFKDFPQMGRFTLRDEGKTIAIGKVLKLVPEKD
T1 sequence (Q96SW2 whole entry): as the sequence (Q96SW2 whole entry) above
T1 sequence (Q16531 whole entry partner): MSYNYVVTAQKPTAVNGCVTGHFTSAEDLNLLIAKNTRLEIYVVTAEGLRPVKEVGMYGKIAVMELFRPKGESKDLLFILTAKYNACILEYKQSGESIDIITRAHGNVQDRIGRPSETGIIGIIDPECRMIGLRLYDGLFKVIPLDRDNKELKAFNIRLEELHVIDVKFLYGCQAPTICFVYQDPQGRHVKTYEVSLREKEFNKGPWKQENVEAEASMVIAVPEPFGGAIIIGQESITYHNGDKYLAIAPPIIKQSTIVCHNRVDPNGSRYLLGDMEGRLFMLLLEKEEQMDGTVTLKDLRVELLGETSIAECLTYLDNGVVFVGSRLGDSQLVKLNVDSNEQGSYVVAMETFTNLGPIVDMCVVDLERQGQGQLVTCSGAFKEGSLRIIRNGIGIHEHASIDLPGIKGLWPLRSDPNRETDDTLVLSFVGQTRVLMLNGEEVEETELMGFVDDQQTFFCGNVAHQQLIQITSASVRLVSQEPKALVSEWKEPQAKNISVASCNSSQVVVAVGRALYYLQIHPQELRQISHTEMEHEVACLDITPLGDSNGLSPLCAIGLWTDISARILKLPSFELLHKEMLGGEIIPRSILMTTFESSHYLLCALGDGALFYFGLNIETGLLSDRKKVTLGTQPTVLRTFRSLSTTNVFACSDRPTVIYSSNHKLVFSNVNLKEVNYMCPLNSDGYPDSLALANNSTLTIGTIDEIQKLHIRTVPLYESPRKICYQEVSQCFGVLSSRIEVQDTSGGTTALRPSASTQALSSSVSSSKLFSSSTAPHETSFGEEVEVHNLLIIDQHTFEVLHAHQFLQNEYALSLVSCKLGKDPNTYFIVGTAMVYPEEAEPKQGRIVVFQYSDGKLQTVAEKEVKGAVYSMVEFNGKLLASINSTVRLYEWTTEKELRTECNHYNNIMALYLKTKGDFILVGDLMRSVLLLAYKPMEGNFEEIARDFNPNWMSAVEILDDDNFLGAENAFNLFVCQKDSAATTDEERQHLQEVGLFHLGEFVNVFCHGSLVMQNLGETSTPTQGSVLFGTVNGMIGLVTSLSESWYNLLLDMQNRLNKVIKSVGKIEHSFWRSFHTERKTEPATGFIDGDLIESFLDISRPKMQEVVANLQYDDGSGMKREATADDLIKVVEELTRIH

Row | Structure (SMILES) | DC50 (GSPT1) | IC50 [1]
1 | COc1cc(C)c(Cl)cc1NC(=O)OCc1ccc2c(c1)C(=O)N(C1CCC(=O)NC1=O)C2 (centres unmarked) [Compound 201] | < 30 nM | –
2 | O=C1CCC(N2Cc3ccc(COC(=O)Nc4cccc(OC(F)F)c4)cc3C2=O)C(=O)N1 (centres unmarked) [Compound 205] | < 30 nM | –
3 | Cc1cc(NC(=O)OCc2ccc3c(c2)C(=O)N(C2CCC(=O)NC2=O)C3)cc(C)n1 (centres unmarked) [Compound 207] | – | < 1100 nM
4 | Cc1ccc(NC(=O)OCc2ccc3c(c2)C(=O)N(C2CCC(=O)NC2=O)C3)cc1Cl (centres unmarked) [Compound 210] | < 30 nM | –
5 | O=C1CCC(N2Cc3ccc(COC(=O)Nc4cc(Cl)cc(OC(F)(F)F)c4)cc3C2=O)C(=O)N1 (centres unmarked) [Compound 211] | < 30 nM | –
6 | O=C1CCC(N2Cc3ccc(COC(=O)Nc4ccc5c(c4)OCC5)cc3C2=O)C(=O)N1 (centres unmarked) [Compound 218] | – | < 1100 nM
7 | Cc1c(Cl)cc(NC(=O)OCc2ccc3c(c2)C(=O)N(C2CCC(=O)NC2=O)C3)cc1CN1CC2CCC(C1)O2 (centres unmarked) [Compound 221] | < 30 nM | –
8 | O=C1CCC(N2Cc3ccc(COC(=O)N4CCCC4)cc3C2=O)C(=O)N1 (centres unmarked) [Compound 226] | – | < 1100 nM
9 | O=C1CCC(N2Cc3ccc(COC(=O)NC4CCCC4)cc3C2=O)C(=O)N1 (centres unmarked) [Compound 229] | – | < 1100 nM
10 | CCOc1cc(NC(=O)OCc2ccc3c(c2)C(=O)N(C2CCC(=O)NC2=O)C3)ccc1C (centres unmarked) [Compound 233] | – | < 1100 nM
11 | Cc1c(CN2CCOCC2)cc(NC(=O)OCc2ccc3c(c2)C(=O)N(C2CCC(=O)NC2=O)C3)cc1OC(F)(F)F (centres unmarked) [Compound 234] | < 30 nM | –
12 | COc1cc(Cl)ccc1NC(=O)OCc1ccc2c(c1)C(=O)N(C1CCC(=O)NC1=O)C2 (centres unmarked) [Compound 238] | – | < 1100 nM
13 | O=C1CCC(N2Cc3ccc(COC(=O)Nc4ccc(-c5ccccc5)nc4)cc3C2=O)C(=O)N1 (centres unmarked) [Compound 242] | < 30 nM | –
14 | CC(C)(C)c1ccc(NC(=O)OCc2ccc3c(c2)C(=O)N(C2CCC(=O)NC2=O)C3)cn1 (centres unmarked) [Compound 243] | < 30 nM | –
15 | Cc1c(Cl)cc(NC(=O)OCc2ccc3c(c2)C(=O)N(C2CCC(=O)NC2=O)C3)cc1OC1CCNC1 (centres unmarked) [Compound 244] | – | < 1100 nM
16 | CN1CCC(Oc2cc(Cl)cc(NC(=O)OCc3ccc4c(c3)C(=O)N(C3CCC(=O)NC3=O)C4)c2)C1 (centres unmarked) [Compound 246] | < 30 nM | –
17 | CC(C)(C)c1ccc(NC(=O)OCc2ccc3c(c2)C(=O)N(C2CCC(=O)NC2=O)C3)cc1 (centres unmarked) [Compound 247] | < 30 nM | –
18 | Cc1c(Cl)cc(NC(=O)OCc2ccc3c(c2)C(=O)N(C2CCC(=O)NC2=O)C3)cc1OCCN1CCOCC1 (centres unmarked) [Compound 248] | < 30 nM | –
19 | CCc1ncc(NC(=O)OCc2ccc3c(c2)C(=O)N(C2CCC(=O)NC2=O)C3)cc1C (centres unmarked) [Compound 249] | < 30 nM | –
20 | O=C1CCC(N2Cc3ccc(COC(=O)Nc4ccc(-c5ccccn5)cc4)cc3C2=O)C(=O)N1 (centres unmarked) [Compound 250] | < 30 nM | –
21 | COc1cc(NC(=O)OCc2ccc3c(c2)C(=O)N(C2CCC(=O)NC2=O)C3)cnc1C (centres unmarked) [Compound 251] | – | < 1100 nM
22 | Cc1c(Cl)cc(NC(=O)OCc2ccc3c(c2)C(=O)N(C2CCC(=O)NC2=O)C3)cc1OCC1CCNC1 (centres unmarked) [Compound 252] | – | < 1100 nM

Row | Structure (SMILES) | DC50 (GSPT1) | IC50 [1]
23 | O=C1CCC(N2Cc3ccc(COC(=O)Nc4cnc5c(c4)CCC5)cc3C2=O)C(=O)N1 (centres unmarked) [Compound 253] | – | < 1100 nM
24 | O=C1CCC(N2Cc3ccc(COC(=O)Nc4cc(F)cc(OC(F)(F)F)c4)cc3C2=O)C(=O)N1 (centres unmarked) [Compound 257] | < 30 nM | –
25 | O=C1CCC(N2Cc3ccc(COC(=O)Nc4ccc(F)c(OC(F)(F)F)c4)cc3C2=O)C(=O)N1 (centres unmarked) [Compound 261] | < 30 nM | –
26 | CC1(c2ccc(NC(=O)OCc3ccc4c(c3)C(=O)N(C3CCC(=O)NC3=O)C4)cc2)COC1 (centres unmarked) [Compound 262] | – | < 1100 nM
27 | O=C1CCC(N2Cc3ccc(COC(=O)Nc4cnc(N5CCCCC5)nc4)cc3C2=O)C(=O)N1 (centres unmarked) [Compound 264] | – | < 1100 nM
28 | O=C1CCC(N2Cc3ccc(COC(=O)Nc4ccc5c(c4)CCCO5)cc3C2=O)C(=O)N1 (centres unmarked) [Compound 267] | – | < 1100 nM
29 | CC1CCN(c2ccc(NC(=O)OCc3ccc4c(c3)C(=O)N(C3CCC(=O)NC3=O)C4)cn2)C1 (centres unmarked) [Compound 269] | < 30 nM | –
30 | O=C1CCC(N2Cc3ccc(COC(=O)Nc4cnc(N5CCCCC5)c(F)c4)cc3C2=O)C(=O)N1 (centres unmarked) [Compound 272] | – | < 1100 nM
31 | CC1CCCN1c1ccc(NC(=O)OCc2ccc3c(c2)C(=O)N(C2CCC(=O)NC2=O)C3)cn1 (centres unmarked) [Compound 274] | < 30 nM | –
32 | O=C1CCC(N2Cc3ccc(COC(=O)Nc4ccc(N5CCOCC5)nc4)cc3C2=O)C(=O)N1 (centres unmarked) [Compound 276] | – | < 1100 nM
33 | O=C1CCC(N2Cc3ccc(COC(=O)Nc4ccc5c(c4)OC(F)(F)O5)cc3C2=O)C(=O)N1 (centres unmarked) [Compound 279] | < 30 nM | –
34 | O=C1CCC(N2Cc3ccc(COC(=O)Nc4ccc(-c5ccccc5F)nc4)cc3C2=O)C(=O)N1 (centres unmarked) [Compound 284] | < 30 nM | –
35 | O=C1CCC(N2Cc3ccc(COC(=O)Nc4cnc(-c5ccccc5)c(F)c4)cc3C2=O)C(=O)N1 (centres unmarked) [Compound 285] | < 30 nM | –
36 | CN(C)C1CN(c2ccc(NC(=O)OCc3ccc4c(c3)C(=O)N(C3CCC(=O)NC3=O)C4)cn2)C1 (centres unmarked) [Compound 289] | – | < 1100 nM
37 | COc1cc(NC(=O)OCc2ccc3c(c2)C(=O)N(C2CCC(=O)NC2=O)C3)cnc1-c1ccccc1 (centres unmarked) [Compound 290] | < 30 nM | –
38 | O=C1CCC(N2Cc3ccc(COC(=O)Nc4cccc(OC5CC5)c4)cc3C2=O)C(=O)N1 (centres unmarked) [Compound 293] | – | < 1100 nM
39 | O=C1CCC(N2Cc3ccc(COC(=O)Nc4cc(CN5CCOCC5)cc(OC(F)F)c4)cc3C2=O)C(=O)N1 (centres unmarked) [Compound 295] | < 30 nM | –
40 | O=C1CCC(N2Cc3ccc(COC(=O)Nc4cc(OCCN5CCOCC5)cc(OC(F)F)c4)cc3C2=O)C(=O)N1 (centres unmarked) [Compound 296] | < 30 nM | –
41 | O=C1CCC(N2Cc3ccc(COC(=O)NCc4ccccc4)cc3C2=O)C(=O)N1 (centres unmarked) [Compound 298] | – | < 1100 nM
42 | O=C1CCC(N2Cc3ccc(COC(=O)Nc4cc(CN5CC6CC5CO6)cc(OC(F)F)c4)cc3C2=O)C(=O)N1 (centres unmarked) [Compound 300] | – | < 1100 nM
43 | CC(NC(=O)OCc1ccc2c(c1)C(=O)N(C1CCC(=O)NC1=O)C2)c1ccccc1 (centres unmarked) [Compound 302] | – | < 1100 nM
44 | O=C1CCC(N2Cc3ccc(COC(=O)Nc4ccc(C5CCC5)nc4)cc3C2=O)C(=O)N1 (centres unmarked) [Compound 305] | – | < 1100 nM
